Experimental data from PubChem BioAssay (NCI).
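Test compounds were applied to cells in 96-well plates for 48 hours at 5 doses. The concentration for full growth arrest is given as TGI.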

Assays:
Assay in all cases: NCI tumour cell line growth inhibition, 48 h
SN12C renal = system: SN12C renal
SK-OV-3 ovarian = system: SK-OV-3 ovarian
M19-MEL melanoma = system: M19-MEL melanoma
HOP-18 NSCLC = system: HOP-18 NSCLC
UACC-257 melanoma = system: UACC-257 melanoma
RPMI-8226 leukemia = system: RPMI-8226 leukemia
A549 NSCLC = system: A549 NSCLC
SNB-19 CNS = system: SNB-19 CNS
NCI-H23 lung = system: NCI-H23 lung
UO-31 renal = system: UO-31 renal
SF-295 CNS = system: SF-295 CNS
LOX IMVI melanoma = system: LOX IMVI melanoma
SNB-75 CNS = system: SNB-75 CNS
OVCAR-4 ovarian = system: OVCAR-4 ovarian
K-562 leukemia = system: K-562 leukemia
DLD-1 colon = system: DLD-1 colon
HOP-92 NSCLC = system: HOP-92 NSCLC
HCT-15 colon = system: HCT-15 colon
OVCAR-8 ovarian = system: OVCAR-8 ovarian
SK-MEL-28 melanoma = system: SK-MEL-28 melanoma
CAKI-1 renal = system: CAKI-1 renal
HL-60(TB) leukemia = system: HL-60(TB) leukemia
U251 CNS = system: U251 CNS
DMS 273 small cell lung = system: DMS 273 small cell lung
OVCAR-3 ovarian = system: OVCAR-3 ovarian
SF-539 CNS = system: SF-539 CNS
TK-10 renal = system: TK-10 renal
IGROV1 ovarian = system: IGROV1 ovarian
ACHN renal = system: ACHN renal
RXF-631 renal = system: RXF-631 renal
M14 melanoma = system: M14 melanoma
SNB-78 CNS = system: SNB-78 CNS
SK-MEL-5 melanoma = system: SK-MEL-5 melanoma
RXF 393 renal = system: RXF 393 renal
HT29 colon = system: HT29 colon
SW-620 colon = system: SW-620 colon
UACC-62 melanoma = system: UACC-62 melanoma
XF 498 CNS = system: XF 498 CNS
CCRF-CEM leukemia = system: CCRF-CEM leukemia
MALME-3M melanoma = system: MALME-3M melanoma
MOLT-4 leukemia = system: MOLT-4 leukemia
HOP-62 NSCLC = system: HOP-62 NSCLC
NCI-H460 lung = system: NCI-H460 lung
EKVX NSCLC = system: EKVX NSCLC
KM20L2 colon = system: KM20L2 colon
COLO 205 colon = system: COLO 205 colon
DMS 114 small cell lung = system: DMS 114 small cell lung
HCT-116 colon = system: HCT-116 colon
786-0 renal = system: 786-0 renal
HCC-2998 colon = system: HCC-2998 colon
NCI-H226 lung = system: NCI-H226 lung
NCI-H522 lung = system: NCI-H522 lung
LXFL 529 NSCLC = system: LXFL 529 NSCLC
SK-MEL-2 melanoma = system: SK-MEL-2 melanoma
OVCAR-5 ovarian = system: OVCAR-5 ovarian
A498 renal = system: A498 renal
KM12 colon = system: KM12 colon

Structure (SMILES): COc1ccc(C2C(C(=O)O)=C(CO)Oc3cc4c(cc32)OCO4)c(OC)c1 (stereo not drawn)
- TGI (SN12C renal): > 100 µM
- TGI (SK-OV-3 ovarian): > 100 µM
- TGI (M19-MEL melanoma): > 100 µM
- TGI (HOP-18 NSCLC): > 100 µM
- TGI (UACC-257 melanoma): > 100 µM
- TGI (RPMI-8226 leukemia): > 100 µM
- TGI (A549 NSCLC): > 100 µM
- TGI (SNB-19 CNS): > 100 µM
- TGI (NCI-H23 lung): > 100 µM
- TGI (UO-31 renal): > 100 µM
- TGI (SF-295 CNS): > 100 µM
- TGI (LOX IMVI melanoma): > 100 µM
- TGI (SNB-75 CNS): > 100 µM
- TGI (OVCAR-4 ovarian): > 100 µM
- TGI (K-562 leukemia): > 100 µM
- TGI (DLD-1 colon): > 100 µM
- TGI (HOP-92 NSCLC): > 100 µM
- TGI (HCT-15 colon): > 100 µM
- TGI (OVCAR-8 ovarian): > 100 µM
- TGI (SK-MEL-28 melanoma): > 100 µM
- TGI (CAKI-1 renal): > 100 µM
- TGI (HL-60(TB) leukemia): > 100 µM
- TGI (U251 CNS): > 100 µM
- TGI (DMS 273 small cell lung): > 100 µM
- TGI (OVCAR-3 ovarian): > 100 µM
- TGI (SF-539 CNS): > 100 µM
- TGI (TK-10 renal): > 100 µM
- TGI (IGROV1 ovarian): > 100 µM
- TGI (ACHN renal): > 100 µM
- TGI (RXF-631 renal): > 100 µM
- TGI (M14 melanoma): > 100 µM
- TGI (SNB-78 CNS): > 100 µM
- TGI (SK-MEL-5 melanoma): > 100 µM
- TGI (RXF 393 renal): > 100 µM
- TGI (HT29 colon): > 100 µM
- TGI (SW-620 colon): > 100 µM
- TGI (UACC-62 melanoma): > 100 µM
- TGI (XF 498 CNS): > 100 µM
- TGI (CCRF-CEM leukemia): > 100 µM
- TGI (MALME-3M melanoma): > 100 µM
- TGI (MOLT-4 leukemia): > 100 µM
- TGI (HOP-62 NSCLC): 72 µM
- TGI (NCI-H460 lung): > 100 µM
- TGI (EKVX NSCLC): > 100 µM
- TGI (KM20L2 colon): > 100 µM
- TGI (COLO 205 colon): > 100 µM
- TGI (DMS 114 small cell lung): > 100 µM
- TGI (HCT-116 colon): > 100 µM
- TGI (786-0 renal): > 100 µM

Structure (SMILES): CC1=C(C(=O)NCc2ccccc2)C(c2ccc(N(C)C)cc2)C(C(=O)NCc2ccccc2)=C(C)N1
- TGI (SN12C renal): > 100 µM
- TGI (SK-OV-3 ovarian): > 100 µM
- TGI (M19-MEL melanoma): > 100 µM
- TGI (UACC-257 melanoma): > 100 µM
- TGI (RPMI-8226 leukemia): > 100 µM
- TGI (A549 NSCLC): > 100 µM
- TGI (HCC-2998 colon): > 100 µM
- TGI (SNB-19 CNS): > 100 µM
- TGI (NCI-H23 lung): > 100 µM
- TGI (UO-31 renal): > 100 µM
- TGI (NCI-H226 lung): > 100 µM
- TGI (SF-295 CNS): > 100 µM
- TGI (SNB-75 CNS): > 100 µM
- TGI (OVCAR-4 ovarian): > 100 µM
- TGI (K-562 leukemia): > 100 µM
- TGI (NCI-H522 lung): > 100 µM
- TGI (DLD-1 colon): > 100 µM
- TGI (HOP-92 NSCLC): > 100 µM
- TGI (OVCAR-8 ovarian): > 100 µM
- TGI (SK-MEL-28 melanoma): > 100 µM
- TGI (CAKI-1 renal): > 100 µM
- TGI (HL-60(TB) leukemia): > 100 µM
- TGI (U251 CNS): > 100 µM
- TGI (LXFL 529 NSCLC): > 100 µM
- TGI (DMS 273 small cell lung): > 100 µM
- TGI (OVCAR-3 ovarian): > 100 µM
- TGI (SF-539 CNS): > 100 µM
- TGI (TK-10 renal): > 100 µM
- TGI (IGROV1 ovarian): > 100 µM
- TGI (ACHN renal): > 100 µM
- TGI (SK-MEL-2 melanoma): > 100 µM
- TGI (RXF-631 renal): > 100 µM
- TGI (M14 melanoma): > 100 µM
- TGI (SNB-78 CNS): > 100 µM
- TGI (OVCAR-5 ovarian): > 100 µM
- TGI (SK-MEL-5 melanoma): > 100 µM
- TGI (RXF 393 renal): 80.3 µM
- TGI (HT29 colon): > 100 µM
- TGI (SW-620 colon): > 100 µM
- TGI (A498 renal): > 100 µM
- TGI (UACC-62 melanoma): > 100 µM
- TGI (KM12 colon): > 100 µM
- TGI (XF 498 CNS): > 100 µM
- TGI (CCRF-CEM leukemia): > 100 µM
- TGI (MALME-3M melanoma): > 100 µM
- TGI (MOLT-4 leukemia): > 100 µM
- TGI (HOP-62 NSCLC): > 100 µM
- TGI (NCI-H460 lung): > 100 µM
- TGI (EKVX NSCLC): > 100 µM
- TGI (KM20L2 colon): > 100 µM
- TGI (COLO 205 colon): > 100 µM
- TGI (DMS 114 small cell lung): > 100 µM
- TGI (HCT-116 colon): > 100 µM
- TGI (786-0 renal): > 100 µM
